According to patent US8772268B2, “Bisphosphonamidate prodrugs and uses thereof” (The Johns Hopkins University, priority 2010, dated 2014):
Entries after “also recorded” stand apart in the source; their conditions may differ.

Tests used:
Type in all cases: cell-based
[1] = system: A549 NSCLC cells; assay: Cell cycle analysis (PI and flow cytometry); settings: A549, 0, 3, or 10 μM for 72 h, nocodazole for the last 24 h
Experimental: PI and flow cytometry analysis were performed to study the effects of prodrug 14 on cell cycle.
Briefly, A549 NSCLC cells were plated at 6.7×10^4 cells per well in flat bottom 6-well plates. Cells were dosed as described above. At 24, 48 or 72 hours following drug treatment, the media was collected, and the cells were washed with 1 mL PBS. Each well was trypsinized with 600 μL trypsin for 3-5 min. The trypsin reaction was quenched with an equal volume of media. All supernatants and washes were combined and centrifuged at 1,500 rpm for 5 min. Supernantant was decanted, and the cells were washed with 2 mL 1% FBS/PBS. Cells were centrifuged at 1,500 rpm for 5 min, and the supernatant was decanted. Cells were resuspended in 1 mL cold PBS, fixed in cold 70% ethanol and incubated at 4° C. for at least 30 min. Cells were centrifuged at 1,500 rpm for 5 min, washed with 1% FBS/PBS, and resuspended in 1 mL of 2:1 1% FBS in PBS/phosphate citric acid buffer (pH 7.8). Cells were incubated at room temperature for 5 min, then spun at 1,500 rpm for 5 min. The supernatant was decanted, the cells were resuspended and incubated in 300 μL PBS/FBS/PURNase solution (10 μg/mL propidium iodide and 3 K.U. of RNase A) for 30 mM at 37° C. Flow cytometry was performed to analyze DNA content, collecting ten thousand PI positive gated events per sample.

[2] = system: caspases 3/7; assay: Caspase Glo 3/7 assay; settings: higher drug concentrations, by 48 hours
Experimental: Caspase Glo 3/7 (Promega) assay was used to determine caspases 3/7 activation following treatment of cells with clodronate prodrug. Briefly, cells were treated with clodronate prodrug for 24, 48, or 72 h. Caspase glo 3/7 (Promega) reagent ([…]) was added to each well at 24, 48 or 72 h. The cells were then incubated at room temperature for 1 h, and the luminescence of each well was determined using a luminometer.

[3] = system: A549 NSCLC cells; assay: Effect of drug treatment time (MTS, drug removed); settings: A549, 24 or 2 h exposure, viability measured after 48 h
Experimental: Cell proliferation was determined using the CellTiter 96 Aqueous One Solution Cell Proliferation Assay MTS assay. A549 NSCLC cells were plated at 1.5×10^3 cells per well in flat bottom 96 well plates in 99 μL of media and allowed to adhere overnight. The drugs were serially diluted in 100% DMSO. For each drug treatment group, 1 μL of a 100× stock solution was added to each well for a final DMSO concentration of 1%. Cells were treated for 2, 24, or 48 under normoxic or hypoxic (1-3% oxygen) conditions. Following 2 or 24 h, media containing drug was removed, the cells were washed 1× with fresh media, and 100 μL fresh media was added to each well. Cells were then allowed to grow for an additional 46 or 24 h in drug free media. After 48 h, cells were incubated with MTS dye (20 μL well^−1) for 40 min to 2 h. Absorbance at 490 nm was determined using a SpectraMax M2 (Molecular Devices) plate reader. The percent cell proliferation was calculated by converting the experimental absorbance to percentage of control, which was then plotted vs. drug concentration. The IC50 values were determined using a non-linear dose-response analysis in GraphPad Prism version 4.0.
A549 cells were treated with prodrug 14 for 24 or 2 h. Prodrug was removed and cell viability measured after 48 h using a standard MTS assay. Longer exposure to […] results in lower […].

[4] = system: EKVX; assay: NCI-60 DTP Human Tumor Cell Line Screen; settings: Non-Small Cell Lung Cancer, 48 h
[5] = system: HOP-62; assay: NCI-60 DTP Human Tumor Cell Line Screen; settings: HOP-62, Non-Small Cell Lung Cancer, 48 h
[6] = system: NCI-H23; assay: NCI-60 DTP Human Tumor Cell Line Screen; settings: NCI-H23, Non-Small Cell Lung Cancer, 48 h
[7] = system: NCI-H322M; assay: NCI-60 DTP Human Tumor Cell Line Screen; settings: Non-Small Cell Lung Cancer, 48 h
[8] = system: COLO 205; assay: NCI-60 DTP Human Tumor Cell Line Screen; settings: COLO 205, Colon Cancer, 48 h
[9] = system: SF-295; assay: NCI-60 DTP Human Tumor Cell Line Screen; settings: SF-295, CNS Cancer, 48 h
[10] = system: SNB-19; assay: NCI-60 DTP Human Tumor Cell Line Screen; settings: SNB-19, CNS Cancer, 48 h
[11] = system: MALME-3M; assay: NCI-60 DTP Human Tumor Cell Line Screen; settings: Melanoma, 48 h
[12] = system: MDA-MB-435; assay: NCI-60 DTP Human Tumor Cell Line Screen; settings: MDA-MB-435, Melanoma, 48 h
[13] = system: SK-OV-3; assay: NCI-60 DTP Human Tumor Cell Line Screen; settings: SK-OV-3, Ovarian Cancer, 48 h
[14] = system: 786-0; assay: NCI-60 DTP Human Tumor Cell Line Screen; settings: 786-0, Renal Cancer, 48 h
[15] = system: ACHN; assay: NCI-60 DTP Human Tumor Cell Line Screen; settings: Renal Cancer, 48 h
[16] = system: SN12C; assay: NCI-60 DTP Human Tumor Cell Line Screen; settings: Renal Cancer, 48 h

## CN(CCCCCl)P(=O)(OCc1ccc([N+](=O)[O-])cc1)C(Cl)(Cl)P(=O)(OCc1ccc([N+](=O)[O-])cc1)N(C)CCCCCl (stereo not drawn) [compound 14]
[1]
  effect on cell cycle: G1 cell cycle arrest; also recorded: accumulation of cells in G1 phase is evident
[2]
  caspases 3/7 activation: Activation of caspases 3/7
[3]
  growth inhibition over shorter drug treatment times: more potent growth inhibition than zoledronate
[4]
  Log10GI50: −5.50
  Log10LC50: >−4.00
  Log10TGI: >−4.00
[5]
  Log10GI50: >−4.00
  Log10LC50: >−4.00
  Log10TGI: >−4.00
[6]
  Log10GI50: −5.58
  Log10LC50: >−4.00
  Log10TGI: >−4.00
[7]
  Log10GI50: −5.34
  Log10LC50: >−4.00
  Log10TGI: >−4.00
[8]
  Log10GI50: −5.53
  Log10LC50: >−4.00
  Log10TGI: −5.10
[9]
  Log10GI50: −5.61
  Log10LC50: >−4.00
  Log10TGI: −4.77
[10]
  Log10GI50: −5.30
  Log10LC50: >−4.00
  Log10TGI: >−4.00
[11]
  Log10GI50: −5.39
  Log10LC50: >−4.00
  Log10TGI: >−4.00
[12]
  Log10GI50: −5.55
  Log10LC50: >−4.00
  Log10TGI: −4.65
[13]
  Log10GI50: −5.19
  Log10LC50: >−4.00
  Log10TGI: >−4.00
[14]
  Log10GI50: −5.28
  Log10LC50: >−4.00
  Log10TGI: >−4.00
[15]
  Log10GI50: −5.49
  Log10LC50: >−4.00
  Log10TGI: >−4.00
[16]
  Log10GI50: −5.42
  Log10LC50: >−4.00
  Log10TGI: >−4.00
